The source of these data is patent publication US5212158A, “Derivatives of L-proline, their preparation and their biological uses” (Inorgan SA Recherche & Developpement Pharmaceutiques, CAS, priority 1987, dated 1993).

Residues, ends and D or L forms follow the SMILES beside them. *: point of attachment. PhAc = O=C(Cc1ccccc1)*; Bz = O=C(c1ccccc1)*

Series [1] relates to mouse. The experiment in a line: Test of passive avoidance: amnesia induced by scopolamine. The class given is in vivo. As to conditions: for activity in the scopolamine amnesia test: at 2, 8 and 32 mg/kg; for activity in the scopolamine amnesia test / dose at which activity is significant / active dose, scopolamine amnesia test: oral administration; for dose with significant/antagonistic effect on scopolamine amnesia: i.p. route 60 minutes before Assay 1. How it is done: The procedure described by Glick and Zimmerberg in Behavioural Biology, 1972, 7: 245-254 and by Lenegre et al in Pharmacol. Biochem. Behav., 29 (3) 1988 were used.
The mouse is introduced into the illuminated compartment of a two-compartment box. When it crosses into the darker component its paws receive electric shocks of 0.3 mA until it returns into the illuminated compartment (Assay 1).
When the mouse is returned to the box 24 hours later (Assay 2), it avoids going into the darker component. An i.p. injection of scopolamine (1 mg.kg^-1) 30 minutes before Assay 1 reduces the memory of this experience as is reflected in the delay of the reaction of the mouse before it crosses to the darker compartment in Assay 2. […]
Piracetam was used as reference substance.

Series [2] concerns prolactin. The experiment in a line: Effect on adenohypophyseal hormone secretions: prolactin radioimmunoassay. The class given is in vivo, rat. As to conditions: male rats, plasma 30 min later; for activity on prolactin levels: 32 mg/kg IP. The protocol: (§1) Male rats received 2 mg/kg, 8 mg/kg, or 32 mg/kg IP of product of example 1 in arabic gum (2.5%) and 32 mg/kg IP of products of examples 2 and 3. Rats were killed 30 min. later by decapitation and plasma samples were aliquoted and kept frozen (-20° C.) until assays. Before the experiments, the rats have been accustomed to handling to avoid any stress effect.
(§2) Hormones were assayed using radioimmunoassays for prolactin, GH and TSH.

In series [3] the test system is TSH. Kind of series: Effect on adenohypophyseal hormone secretions: TSH radioimmunoassay. The class given is in vivo, rat. As to conditions: male rats, plasma 30 min later; for activity on TSH levels: 32 mg/kg IP. The protocol:
as §1, §2

The subject of series [4] is GH. Kind of series: Effect on adenohypophyseal hormone secretions: GH radioimmunoassay. As to conditions: male rats; 32 mg/kg IP; plasma 30 min later. The format is in vivo, rat. The protocol: as §1, §2
Series [5] is described as follows: Solubility of the product obtained. The class given is physicochemical. The source says:
The product obtained was insoluble in water and is soluble to the extent of at least 1% to 5% in organic solvents such as methanol. chloroform, ethyl acetate and dimethylformamide.

The subject of series [6] is male mice of the NMRI strain. The experiment in a line: Irwin test. The format is in vivo, mouse. How it is done: A volume of 0.25 ml/20 g of body weight of a suspension of the compound of the invention in 5% gum arabic is administered to male mice of the NMRI strain by the i.p. route. The control animals received only the 5% suspension of gum arabic. Changes in behaviour, neurotoxicity symptoms, the diameter of the pupil and the rectal temperature are recorded in the standardized observation schedule according to Irwin in Psychopharmacologia, 1968, 13, 222-257. These observations were made at 15, 30, 60, 120 and 180 minutes after injection and 24 hours later. The compounds of the invention were studied at doses of 1024, 512 and 256 mg.kg^-1.

Series [7] has as its system mice of the NMRI strain. Kind of series: Test of passive avoidance: amnesia induced by diazepam. The conditions noted are these: for dose with statistically significant effect / dose reducing diazepam amnesia: 60 minutes before Assay 1, piracetam by the i.p. route. The format is in vivo, mouse. How it is done:
A volume of 0.25 ml/20 g of body weight of the compound of Example 1 (suspension in 5% gum arabic) is administered to mice of the NMRI strain or, in the case of the reference substance, an aqueous solution of piracetam or of diazepam (5% suspension in gum arabic) is administered. The control animals receive only injections of the vehicle (suspension of gum arabic). The test is carried out at indicated above for the induction of amnesia by the injection of scopolamine, with exception that this latter is replaced by diazepam. An injection of diazepam by the i.p. route 30 minutes before Assay 1 at a dose of 1 mg.kg^-1 reduces memory in a significant manner as is shown by the diminution of the reaction time in the mouse for crossing to the dark compartment during Assay 2.

Series [8] concerns mice of the NMRI strain. The experiment in a line: Antagonism of sleep induced by barbiturates. The format is in vivo, mouse. As to conditions: oral 2 and 8 mg/kg one hour before barbital 50 mg/kg i.p.; compared with a control group. The protocol:
A compound of the invention is administered orally at doses of 2, 8 and 32 mg.kg^-1 to mice of the NMRI strain one hour before the intraperitoneal administration of barbital at a dose of 50 mg/kg.

The test system of series [9] is NMRI mice. Kind of series: Potentiation of the effects of L-dopa. The format is in vivo, mouse. As to conditions: oral 8 and 32 mg/kg one hour before L-dopa 150 mg/kg i.p. The protocol: A compound of the invention is adiministered orally at doses of 2, 8 and 32 mg/kg to NMRI mice one hour before the intraperitoneal administration of 150 mg/kg of L-dopa.
[10] abbreviates: i.p. 1024 mg.kg^-1, between 1 and 2 hours after administration.

On to “4-fluorocinnamoylglycyl-L-phenylalanine-L-prolinamide [Example 2]”, for which, in series [1], the “activity in the scopolamine amnesia test” value is on record as “active” and the “dose at which activity is significant / active dose, scopolamine amnesia test” value was 2 mg/kg. In addition, in series [2], the “activity on prolactin levels” value was “no activity at all”. Further, in series [3], the “activity on TSH levels” value is “no activity at all”. Further, the “activity on GH levels” value in [4] is “no activity at all”.
In the case of `NC(=O)[C@@H]1CCCN1C(=O)[C@H](Cc1ccccc1)NC(=O)CNC(=O)C=Cc1ccccc1` [Example 1, cinnamoyl-glycyl-L-phenylalanyl-L-prolinamide], the solubility in water entry in series [5] is on record as “insoluble”. Moreover, the “Irwin observations versus control animals” value in [6] (i.p. 256 mg.kg^-1) is on record as “no difference from the control animals”. Further, in series [6] (i.p. 512 mg.kg^-1), the “Irwin observations (hypothermia)” value was “only a slight hypothermia”. Moreover, in series [6] (i.p. 1024 mg.kg^-1), the hypothermia entry is recorded as “hypothermia (2 mice/3)” and the ptosis result is on record as “moderate ptosis (3 mice/3)”. In addition, in series [6] (setting [10]), the excitation entry is “excitation (1 mouse/3)” and the sedation result is “slight sedation (1 mouse/3)”. Further, in series [1], the “activity in the scopolamine amnesia test” value is on record as “active”; the “dose with significant/antagonistic effect on scopolamine amnesia” value was found to be 1 mg/kg; the “dose at which activity is significant / active dose, scopolamine amnesia test” value is listed as 2 mg/kg. Besides, the “antagonism of the effects of scopolamine (Assay 2)” value in series [1] (i.p. 60 minutes before Assay 1, doses of 1, 4 and 16 mg/kg) is listed as “antagonizes the effects of scopolamine”. In addition, the “dose with statistically significant effect / dose reducing diazepam amnesia” value in series [7] is 4 mg/kg. Besides, the “antagonism of the effect of diazepam (Assay 2)” value in [7] (doses of 0.25, l and 4 mg.kg^-1, 60 minutes before Assay 1, diazepam 1 mg.kg^-1 i.p.) is “antagonizes the effect of diazepam in a dose-dependent manner”. Besides, the duration of sleep entry in series [8] is listed as “significantly diminishes the duration of sleep”. Moreover, the “behavioural changes with L-dopa” value in [9] is “induces behavioural changes in the treated animals such as rapid running and jumping”. Further, in series [2] (2, 8 or 32 mg/kg IP, dose dependent), the prolactin levels result is “slightly increased”. Also, the TSH levels result in series [3] (8 mg/kg IP) is recorded as “very slightly increased”.
In the case of `NC(=O)[C@@H]1CCCN1C(=O)[C@H](Cc1ccccc1)NC(=O)CNC(=O)C=Cc1ccc2c(c1)OCO2` [Example 3, 3,4-methylenedioxycinnamoyl-glycyl-L-phenylalanyl-L-prolinamide], in series [1], the “activity in the scopolamine amnesia test” value was “active” and the “dose at which activity is significant / active dose, scopolamine amnesia test” value is 2 mg/kg. Also, the “activity on prolactin levels” value in [2] is “no activity at all”. Besides, in series [3], the “activity on TSH levels” value is “no activity at all”. The “activity on GH levels” value in series [4] was “no activity at all”.
For `NC(=O)[C@@H]1CCCN1C(=O)[C@H](Cc1ccccc1)NC(=O)CNC(=O)c1ccccc1` [Example 6, benzoyl-glycyl-L-phenylalanyl-L-prolinamide] (Bz-Gly-Phe-Pro-NH2), in [1], the “activity in the scopolamine amnesia test” value was “active” and the “dose at which activity is significant / active dose, scopolamine amnesia test” value came out at 2 mg/kg.
On to `NC(=O)[C@@H]1CCCN1C(=O)[C@H](Cc1ccccc1)NC(=O)CNC(=O)Cc1ccccc1` [Example 7, phenylacetyl-glycyl-L-phenylalanyl-L-prolinamide] (PhAc-Gly-Phe-Pro-NH2), for which, in [1], the “activity in the scopolamine amnesia test” value is given as “active” and the “dose at which activity is significant / active dose, scopolamine amnesia test” value worked out at 2 mg/kg.
`NC(=O)CN1CCCC1=O` [piracetam, reference compound]: the “latent periods for crossing into the dark compartment or for escaping from it during Assay 1” value in series [1] (i.p. or oral route 60 mn before the assay, Assay 1) is “does not produce any effect”. Also, in [1], the “dose with significant/antagonistic effect on scopolamine amnesia” value stood at 512 mg/kg and the “dose at which activity is significant / active dose, scopolamine amnesia test” value worked out at 2048 mg/kg. Further, the “dose with statistically significant effect / dose reducing diazepam amnesia” value in series [7] came to 512 mg/kg.
